# Results as given in US20150366966A1, “Stable Aqueous Solution” (SENJU PHARMACEUTICAL CO., LTD., priority 2013, published 2015).
# What was measured:
# [1] = Light stability of compound A in aqueous solution (residual ratio by HPLC after white light irradiation); format: physicochemical
# Method: An aqueous solution of compound A was prepared according to the following formulation. In 0.1% phosphate buffer was added a predetermined amount of tyloxapol, octoxynol, polysorbate 80, HCO-60 or MYS-40, and the mixture was adjusted to […] with sodium hydroxide. Compound A in the predetermined amount in the following formulation was dissolved in said solution, and the mixture was sterilized by filtration with a 0.22 μm membrane filter, and filled in a 5 mL colorless glass ampoule. Using a photostability testing device (model: LT-120A-WCD, manufactured by Nagano Science Co., Ltd.), the ampoule was exposed to white light (total illumination 12000 lux·h and 24000 lux·h), and the content of compound A in the glass ampoule was measured.
# Compound A after storage was quantified by high performance liquid chromatography using the absolute calibration curve method (the Japanese Pharmacopoeia). […]
# An aqueous solution of compound A was prepared according to the following formulation. […] The glass ampoule was placed, under light irradiation conditions and storage conditions at 80° C. for 1 week, and the content of each compound A was measured. Compound A was quantified in the same manner as in Experimental Example 1 and Experimental Example 2.
# [2] = molecular target: T1, PPARδ (Homo sapiens, UniProt Q03181); conditions: reported in WO 03/033493 and WO 2008/143254; cited from earlier work
# T1 sequence (Q03181 1-441): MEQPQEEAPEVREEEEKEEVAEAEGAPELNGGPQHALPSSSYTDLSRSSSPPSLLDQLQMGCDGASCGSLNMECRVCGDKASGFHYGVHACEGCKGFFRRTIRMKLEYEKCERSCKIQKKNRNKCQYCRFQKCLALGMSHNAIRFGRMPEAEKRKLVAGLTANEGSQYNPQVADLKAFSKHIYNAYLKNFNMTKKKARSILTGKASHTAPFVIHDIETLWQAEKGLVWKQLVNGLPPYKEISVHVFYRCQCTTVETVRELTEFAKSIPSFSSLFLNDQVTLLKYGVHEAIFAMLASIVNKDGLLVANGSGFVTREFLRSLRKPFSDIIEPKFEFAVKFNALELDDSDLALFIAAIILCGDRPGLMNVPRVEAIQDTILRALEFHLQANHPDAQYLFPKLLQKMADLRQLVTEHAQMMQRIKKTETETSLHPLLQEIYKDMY
# [3] = Solubility of compound A in water; format: physicochemical
# Method: This has already been shown by the fact that the heat stability of compound A in an aqueous solution decreases extremely when polysorbate 80 conventionally widely used as a solubilizer of poorly soluble drugs is added (see below-mentioned Experimental Example 2, Comparative Example 1).
compound,measurement,setting,value
"Cc1cc2c(CCc3sc(-c4ccc(C(F)(F)F)cc4)nc3C(C)C)noc2cc1OCC(=O)O [Compound A, (3-{2-[4-isopropyl-2-(4-trifluoromethyl)phenyl-5-thiazolyl]ethyl}-5-methyl-1,2-benzisoxazol-6-yl)oxyacetic acid]",stability to light in aqueous solution (in words),[1],extremely unstable to light in an aqueous solution
same,PPARδ agonist action (in words),[2],PPARδ agonist
same,solubility in water (in words),[3],practically insoluble in water
